From US6358995B1, “Carboxylic acid derivatives having fused rings” (Eisai Co., Ltd., priority 1996, dated 2002)

Experiments:
Experiment in all cases: Transcription accelerating activity through RARs (PLAP reporter in COS-1 cells)
Assay type in all cases: cell-based
Conditions in all cases: relative to ED30 of all-trans retinoic acid = 1, ED30 = concentration giving 30% of activity induced by 1 μM all-trans retinoic acid
RAR-α = target: T1, RAR-α (Homo sapiens, UniProt P10276)
T1 construct: expressed in transfected cells; host or cells: COS-1 (African green monkey kidney cells), transient lipofection
T1 sequence (P10276 1-462): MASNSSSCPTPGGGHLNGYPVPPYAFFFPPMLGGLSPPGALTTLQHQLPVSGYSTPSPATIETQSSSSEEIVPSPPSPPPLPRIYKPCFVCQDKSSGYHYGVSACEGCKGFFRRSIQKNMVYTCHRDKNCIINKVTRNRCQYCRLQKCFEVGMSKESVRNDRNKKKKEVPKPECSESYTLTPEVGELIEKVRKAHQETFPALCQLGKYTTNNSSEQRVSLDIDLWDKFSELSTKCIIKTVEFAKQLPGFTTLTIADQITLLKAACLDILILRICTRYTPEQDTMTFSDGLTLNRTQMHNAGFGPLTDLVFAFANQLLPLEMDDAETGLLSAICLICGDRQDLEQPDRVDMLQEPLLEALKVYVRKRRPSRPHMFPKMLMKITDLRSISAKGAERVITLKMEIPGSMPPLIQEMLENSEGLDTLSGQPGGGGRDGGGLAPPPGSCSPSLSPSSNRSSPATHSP
From the text: (§1) Measurement of the Activities of Accelerating Trans-cription Through RARs
(§2) Human RAR Expression Vectors and secretory alkaline phosphatase (PLAP) gene vectors (PLAP vectors) containing in a state integrated into the upstream a competent sequence whose expression is […] through binding with RAR depending on a ligand were temporarily transferred into COS-1 (African green monkey kidney cells), and the PLAP which had been produced depending on a ligand and secreted into a culture medium was analyzed by the chemiluminescence method to determine the transcription-accelerating activity of each compound. Further, the selectivity of each compound among RARs was determined by comparing the transcription accelerating activities of the compound for the receptors with each other.
(§3) On a 60-mm culture dish were scattered 2.5×10^4 COS-1 cells. Four days after, human RAR α, β and γ expression vectors and PLAP vectors were transferred into the cells each in an amount of 4 μg by the lipofection method. Another day after, the resulting cells were recovered, and put on a 96-well culture plate in an amount of 2×10^4 per unit well. Four hours after, the cells were put on a medium containing charcoal-treated fetal bovine serum, followed by the addition of a dilution of all-trans retinoic acid or a test compound. After the lapse of 36 hours, the supernatant was recovered and the resulting samples were treated at 65° C. for 10 minutes to eliminate the non-specific activity. 15 μl of each sample was mixed with 60 μl of a 28 mM sodium carbonate buffer(pH10), followed by the addition of 75 μl of Smilight (trade name, a product of Sumitomo Metal Industries, Ltd., substrate for chemiluminescence). The resulting mixture was reacted at 37° C. for 30 minutes and the intensity of luminescence was determined. The compounds which will be described below induced the transcription activities of RARs dependently on the concentration.

RAR-γ = target: T2, RAR-γ (Homo sapiens, UniProt P13631)
T2 construct: expressed in transfected cells; host or cells: COS-1 (African green monkey kidney cells), transient lipofection
T2 sequence (P13631 1-454): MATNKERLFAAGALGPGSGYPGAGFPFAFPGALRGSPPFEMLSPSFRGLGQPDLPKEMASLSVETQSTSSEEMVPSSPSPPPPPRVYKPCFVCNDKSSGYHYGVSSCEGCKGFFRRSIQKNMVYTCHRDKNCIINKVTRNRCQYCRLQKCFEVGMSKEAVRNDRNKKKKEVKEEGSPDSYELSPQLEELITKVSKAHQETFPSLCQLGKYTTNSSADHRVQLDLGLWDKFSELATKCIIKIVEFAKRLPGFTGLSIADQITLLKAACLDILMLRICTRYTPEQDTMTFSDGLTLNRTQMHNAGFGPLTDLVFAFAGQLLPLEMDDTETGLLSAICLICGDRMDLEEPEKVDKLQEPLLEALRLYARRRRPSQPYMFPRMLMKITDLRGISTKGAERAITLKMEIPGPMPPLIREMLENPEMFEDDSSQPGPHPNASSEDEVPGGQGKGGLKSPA
From the text: as §1, §2, §3

RAR-β = target: T3, RAR-β (Homo sapiens, UniProt P10826)
T3 construct: expressed in transfected cells; host or cells: COS-1 (African green monkey kidney cells), transient lipofection
T3 sequence (P10826 1-455): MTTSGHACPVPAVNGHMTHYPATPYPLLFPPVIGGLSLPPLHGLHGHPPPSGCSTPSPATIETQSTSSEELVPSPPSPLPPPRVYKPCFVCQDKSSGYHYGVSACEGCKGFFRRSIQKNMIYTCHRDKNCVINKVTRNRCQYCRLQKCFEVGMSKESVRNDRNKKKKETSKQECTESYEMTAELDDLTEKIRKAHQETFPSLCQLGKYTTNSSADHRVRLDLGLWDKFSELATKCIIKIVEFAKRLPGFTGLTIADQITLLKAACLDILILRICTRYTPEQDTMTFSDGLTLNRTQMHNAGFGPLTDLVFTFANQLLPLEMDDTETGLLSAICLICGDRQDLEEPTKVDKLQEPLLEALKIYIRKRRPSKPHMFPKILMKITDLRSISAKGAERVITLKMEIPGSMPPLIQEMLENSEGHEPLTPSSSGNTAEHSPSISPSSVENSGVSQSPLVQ
From the text: as §1, §2, §3

Row | Transcription accelerating activity Relative ED30 RAR-α (RAR-α) | Transcription accelerating activity Relative ED30 RAR-γ (RAR-γ) | Transcription accelerating activity Relative ED30 RAR-β (RAR-β) | SMILES
1 | 0.35 | 130 | 65 | Cc1ccc(C)c2sc(-c3ccc(-c4ccc(C(=O)O)cc4)[nH]3)cc12 [Example 77, 4-{2-[5-(4,7-Dimethylbenzothiophen-2-yl)pyrrolyl]}benzoic acid]
2 | 3.1 | 1400 | 450 | CCc1ccc(OC)c2ccc(-c3ccc(-c4ccc(C(=O)O)cc4)[nH]3)cc12 [Example 90, 4-{2-[5-(5-Methoxy-8-ethylnaphthalen-2-yl)pyrrolyl]}benzoic acid]
3 | 0.47 | 790 | 210 | Cc1ccc(F)c2cc(-c3ccc(-c4ccc(C(=O)O)cc4)[nH]3)oc12 [Example 110, 4-{2-[5-(4-Fluoro-7-methylbenzofuran-2-yl)pyrrolyl]}benzoic acid]
4 | 0.80 | 150 | 24 | Cc1cc(C)c2cc(-c3ccc(-c4ccc(C(=O)O)cc4)[nH]3)oc2c1C [Example 113, 4-{2-[5-(4,6,7-Trimethylbenzofuran-2-yl)pyrrolyl]}benzoic acid]
5 | 4.4 | 2400 | 1050 | Cc1cccc2c1C=C(c1ccc(-c3ccc(C(=O)O)cc3)[nH]1)CO2 [Example 129, 4-{2-[5-(5-Methyl-2H-chromen-3-yl)pyrrolyl]}benzoic acid]
6 | 3.2 | 780 | 250 | CC1=CCOc2ccc(-c3ccc(-c4ccc(C(=O)O)cc4)[nH]3)cc21 [Example 133, 4-{2-[5-(4-Methyl-2H-chromen-6-yl)pyrrolyl]}benzoic acid]

Row | SMILES | Transcription accelerating activity Relative ED30 RAR-α (RAR-α) | Transcription accelerating activity Relative ED30 RAR-γ (RAR-γ) | Transcription accelerating activity Relative ED30 RAR-β (RAR-β)
7 | Cc1ccc(C)c2c1C=C(c1ccc(-c3ccc(C(=O)O)cc3)[nH]1)CO2 [Example 127, 4-{2-[5-(5,8-Dimethyl-2H-chromen-3-yl)pyrrolyl]}benzoic acid] | 1.8 | 3600 | 240
